According to patent US6541483B2, “Acridone-derived compounds useful as antineoplastic and antiretroviral agents” (The United States of America as represented by the …, priority 1996, dated 2003):
Like-named read-outs stand apart in the source and are kept apart here.

Columns and labels:
[1] = tested on: HIV-1 LTR-directed chloramphenicol acetyltransferase (CAT) activity; experiment: LTR-directed CAT activity in BF-24 cells; assay type: cell-based; settings: 24 h, temacrazine up to 5 μM
Excerpt: Initiation and regulation of HIV-1 transcription requires a complex series of interactions with cellular transcription factors, such as NFkB, SP-1 and AP-1, and the participation of cellular factors in the transcriptional complex. In addition, the post-integrative model used here requires TNFα stimulated U1 and ACH-2 cells, this model requires not only the participation of the NFkB transcriptional complex, and also components of the TNFα signaling pathway. In order to rule out that temacrazine was non-specifically effecting transcription or down-regulating replication by interfering with the TNFα signal pathway, LTR-directed chloramphenicol acetyltransferase (CAT) activity was measured in BF-24 cells. BF-24 cells are derived from the THP-1 monocytic cell line and carry a stably integrated CAT gene under the transcriptional control of the HIV-1 LTR (S. Schwartz, et al., Proc. Natl. Acad. Sci. USA 86:7200 (1989); B. K. Felber, et al., Science 239:184 (1988)). The LTR in this monocytic cell line is inducible by IL-6, PMA and TNFα, and produces enzymatically active chloramphenicol transferase (“CAT”). […]
CAT activity was determined using a fluorescent Bodipy conjugated chloramphenicol after 18 h of reaction with 50 μg of protein extract containing Acetyl CoA.

melanoma MEXF (514/12) = experiment: clonogenic assay, melanoma line; assay type: cell-based, human
Method: (§1) The activity of compound (4) was tested against several tumor xenografts in vitro. The experiments was carried out on cell lines derived from these tumors, utilizing a standard clonogenic assay protocol.

[2] = tested on: gastric carcinoma GFX (251/14); experiment: clonogenic assay, gastric carcinoma line; assay type: cell-based, human
Method: as §1

[3] = tested on: cell lines derived from tumor xenografts; experiment: clonogenic assay, mean over all tumor xenograft lines; assay type: cell-based, human; settings: all of the lines tested
Method: as §1

[4] = tested on: renal carcinoma RXF (1220/5); experiment: clonogenic assay, renal carcinoma line; assay type: cell-based, human
Method: as §1

[5] = tested on: prostate cancer cell line PRXF (DU145X/2); experiment: clonogenic assay, prostate cancer line DU145X; assay type: cell-based, human
Method: as §1

[6] = tested on: prostate cancer cell line PRXF (PX2M/27), PC3M; experiment: clonogenic assay, prostate cancer line PC3M; assay type: cell-based, human
Method: as §1

[7] = tested on: mammary tumor MACL (MCF7X/13); experiment: clonogenic assay, mammary tumor line; assay type: cell-based, human
Method: as §1

HIV-1 [8] = experiment: XTT cytoprotection assay in CEM-SS cells (antiviral EC50); assay type: cell-based; settings: for XTT Assay EC50: Table 1; for cytoprotective activity: HIV-1-infected CEM SS leukemia cells
Excerpt: (§2) Briefly, the infected cells in culture are killed by the virus, and the cytotoxicity is detected by the formation of color due to the […] of a formazan dye (XTT) by enzymes released by the dying cells (Weislow et al., J. Natl. Cancer Inst. 81:577-586, 1989). An effective antiviral drug is able to protect the infected cells from cytotoxicity by inhibiting some vital function of the virus. […] FIGS. 4 and 5 show the cytoprotective activity of WMC26 and WMC42. Since many drugs can also be toxic to cells in their own right, a parallel experiment is carried out wherein uninfected cells are treated with the drugs until a concentration is reached where the cells are killed by the action of the drug.
(§3) As a result of these preliminary data, additional experiments were carried out to establish the antiviral activity in other cell lines, using a variety of protocols. The preliminary experiments in lymphocytes were confirmed using infected macrophages. Much more extensive experiments were carried out in HIV-1-infected CEM SS leukemia cells. […] However, two derivatives were found which had low antileukemic activity while maintaining high antiviral activity. […] This gives a therapeutic index of more than 3 orders of magnitude. The corresponding therapeutic index for WMC50 is about 100-200, which is quite acceptable. Additional experiments were carried out on WMC-70. […] Further, WMC-70 appears to affect post-transcription events in the virus. […] While the inhibition of integration appears to be the principal mechanism by which this compound exerts its antiviral activity, there are perhaps other mechanisms which are also involved in the therapeutic action of this drug, and by extension, of other antiviral drugs of this class.
(§4) The antiviral properties of the WMC series of compounds were evaluated. First, all compounds were tested for their ability to inhibit HIV-1 replication in cell culture using the XTT cytoprotection assay. This assay measures the concentration-dependent capacity of compounds to protect CEM-SS cells from the cytopathic effects of HIV-1. […] Thus, temacrazine was the most efficacious compound in the XTT cytoprotection assay. This conclusion was also reached when the compounds were tested for anti-HIV-1 activity against HIV-1ADA in human monocyte/macrophage cultures (Table 1).

HIV-1ADA = experiment: anti-HIV-1 activity in monocyte/macrophage cultures; assay type: cell-based; settings: Human immunodeficiency virus 1, read-out: Mo/Mφ EC50
Method: as §4

[9] = biological target: HIV-1 reverse transcriptase (Human immunodeficiency virus type 1 group M subtype B, UniProt P04585); experiment: reverse transcriptase enzyme activity; assay type: biochemical
Excerpt: (§5) Based on the findings thus far our efforts have focused on biological assays of the temacrazine congener.

[10] = tested on: human monocyte/macrophage cultures; experiment: toxicity in monocyte/macrophage cultures; assay type: cell-based; settings: Homo sapiens, read-out: Mo/Mφ IC50
Method: as §4

[11] = tested on: attachment of HIV-1RF to CEM-SS cells; experiment: attachment of virions to CEM-SS cells (cell-bound p24 ELISA); assay type: cell-based; settings: Human immunodeficiency virus 1, CEM-SS, read-out: Attachment ID50
Excerpt: as §5

CEM-SS cells = experiment: XTT assay toxicity in CEM-SS cells (IC50); assay type: cell-based; settings: Homo sapiens, CEM-SS
Excerpt: as §2, §3, §4

[12] = biological target: p7 nucleocapsid protein zinc fingers (Human immunodeficiency virus type 1 group M subtype B, UniProt P04591); experiment: p7NC zinc finger fluorescence assays (TSQ, Trp37); assay type: biochemical, HIV-1
Excerpt: as §5

HIV-1 integrase = HIV-1 integrase (Human immunodeficiency virus type 1 group M subtype B, UniProt P04585); experiment: in vitro integration and disintegration with full length purified integrase; assay type: biochemical; design: utilized the full length purified HIV-1 integrase; settings: full length purified HIV-1 integrase
leukemia = settings: Cholody et al. 1995; cited from earlier work
HIV-1 [13] = experiment: XTT cytoprotection assay in HIV-1 infected peripheral blood lymphocytes; assay type: cell-based; settings: for cytoprotective activity: HIV-1 infected lymphocytes versus uninfected cells; for therapeutic index: lymphocyte cytoprotection assay
Excerpt: These compounds and several others were then examined in a cytoprotection assay involving peripheral blood lymphocytes which had been infected with HIV-1.
as §2

HIV-1RF = experiment: nude mouse hollow fiber model of HIV-1 replication; assay type: in vivo, nude mice; settings: 40 mg/Kg q8h intraperitoneally
Excerpt: The novel mechanism of action of temacrazine and its broad range of activity against HIV-1 and its high therapeutic indexes led us to assess its in vivo and anti-viral properties in a nude mouse hollow fiber model of HIV-1 replication. Briefly, CEM-SS cells are infected with HIV-1RF and placed into hollow fibers and implanted intraperitoneal or subcutaneously into nude mice. […] Similarly, mice are being treated by oral and intravenous administration of temacrazine. Peritoneal washes and serum samples were collected and p24 expression determined by antigen capture. Intraperitoneal administration of temacrazine reduced the amount of detectable p24 in peritoneal washes by 5 to 10 fold independently of the dosage schedule. […] Thus, temacrazine reduces HIV-1 replication in vivo.

Cc1cn([C@H]2C[C@H](N=[N+]=[N-])[C@@H](CO)O2)c(=O)[nH]c1=O [AZT, reference compound]
CAT induction by TNFα [1]: inactive

O=c1c2ccccc2n2cnc3ccc(NCCCN4CCN(CCCNc5ccc6ncn7c8ccccc8c(=O)c5c67)CC4)c1c32 [Compound 4, 1,4-bis[3-[(6-oxo-6H-imidazo[4,5,1-de]-acridin-5-yl)amino]propyl]piperazine]
sensitivity to the drug (melanoma MEXF (514/12)): completely insensitive | sensitivity to the drug [2]: sensitive at the median dose | mean IC70 (concentration resulting in 70% killing of the tumor cells) [3]: 2.3 µg/mL | sensitivity to the drug [4]: completely insensitive | sensitivity to the drug [5]: very sensitive | IC70 ([6]; PC3M): less than 1 nanogram/mL | sensitivity to the drug ([6]; PRXF PX2M/27): very sensitive | sensitivity to the drug [7]: over twice the median dose

CN(CCCNc1ccc2ncn3c4ccccc4c(=O)c1c23)CCCNc1ccc2ncn3c4ccccc4c(=O)c1c23 [Compound 682401]
XTT Assay EC50 (HIV-1 [8]; CEM-SS cells): Inactive | EC50 (HIV-1ADA): 50 nM | IC50 [9]: > 100000 nM | IC50 [10]: 1000 nM | IC50 [11]: > 100000 nM

CN(CCCNc1ccc2ncn3c4ccccc4c(=O)c1c23)CCCNc1ccc2nnn3c4ccccc4c(=O)c1c23 [Compound 682402]
XTT Assay EC50 (HIV-1 [8]; CEM-SS cells): Inactive | EC50 (HIV-1ADA): 160 nM | IC50 [9]: > 100000 nM | IC50 [10]: 10000 nM | IC50 [11]: > 100000 nM

CN(CCCNc1ccc2nnn3c4ccccc4c(=O)c1c23)CCCNc1ccc2nnn3c4ccccc4c(=O)c1c23 [Compound 682403]
XTT Assay EC50 (HIV-1 [8]; CEM-SS cells): Inactive

O=c1c2ccccc2n2cnc3ccc(NCCCN4CCN(CCCNc5ccc6nnn7c8ccccc8c(=O)c5c67)CC4)c1c32 [Compound 682404]
therapeutic index (HIV-1 [8]; CEM SS cells): 100-200 | cytoprotective activity (HIV-1 [8]): cytoprotective at very low concentrations | EC50 (HIV-1 [8]; Human immunodeficiency virus 1, CEM-SS, read-out: XTT Assay EC50): 0.41 nM | EC50 (HIV-1 [8]; Human immunodeficiency virus 1, CEM-SS cells, read-out: EC50 antiviral value, XTT cytoprotection assay): 0.41 nM | IC50 (CEM-SS cells; read-out: IC50 toxicity value, XTT assay): 158 nM | IC50 (CEM-SS cells; read-out: XTT Assay IC50): 158 nM | EC50 (HIV-1ADA): 100 nM | IC50 [9]: 35000 nM | IC50 [10]: 10000 nM | IC50 [11]: > 100000 nM

Cc1cn([C@H]2C[C@H](N=[N+]=[N-])[C@@H](CO[P@](=O)(O)O[P@](=O)(O)OP(=O)(O)O)O2)c(=O)[nH]c1=O [Compound A2TTP, reference compound]
IC50 ([9]; rAdT Template/primer, control compound, read-out: I50 RT Enzyme Activity): 27 nM

O=S1(=O)C[C@H](O)[C@H](O)CS1 [NSC 624151]
NCp7 TSQ (Increase in RFU/90 min) [12]: 17 (NSC 624151) RFU/90 min | NCp7 Trp37 (Decrease in RFU/10 min) [12]: 145 (NSC 624151) RFU/10 min

CC(C)OC(=O)c1cc(NC(=S)OC(C)C)ccc1Cl [UC38, reference compound]
IC50 ([9]; rCdG Template/primer, control compound, read-out: I50 RT Enzyme Activity): 6 nM

CN(CCCNc1ccc2ncn3c4ccccc4c(=O)c1c23)CCCNc1ccc2ncn3c4ccccc4c(=O)c1c23 [WMC26]
inhibition of integration and disintegration steps (HIV-1 integrase): inhibited both the integration and disintegration steps | cytoprotective activity (HIV-1 [8]): could not be shown to be cytoprotective | cytotoxicity to leukemia (leukemia): very potently (nanomolar levels) cytotoxic | cytoprotective activity (HIV-1 [13]): able to protect the infected lymphocytes at concentrations far lower than those which resulted in drug induced killing | therapeutic index (HIV-1 [13]): very good therapeutic indices

CN(CCCNc1ccc2ncn3c4ccccc4c(=O)c1c23)CCCNc1ccc2nnn3c4ccccc4c(=O)c1c23 [WMC42]
inhibition of integration and disintegration steps (HIV-1 integrase): inhibited both the integration and disintegration steps | cytoprotective activity (HIV-1 [13]): able to protect the infected lymphocytes at concentrations far lower than those which resulted in drug induced killing | therapeutic index (HIV-1 [13]): very good therapeutic indices

Nc1ccn([C@H]2CC[C@@H](CO)O2)c(=O)n1 [ddC, reference compound]
Peritoneal Wash p24, mean (HIV-1RF): 7 pg p24 | Serum p24, mean (HIV-1RF): 87 pg p24
